From patent US7615361B2, “Toxicity screening methods” (Ceetox, Inc., priority 2006, dated 2009)

Assays:
rat cardiomyocytes = test: MemTox membrane leakage (AK / α-GST); type: cell-based; conditions: rat, 24 hr
In short: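 Neonatal rat cardiomyocytes were dosed, and the culture medium was collected at the end of exposure to measure total leaked adenylate kinase (luminescence) and/or α-GST (ELISA, 450/650 nm). Percent dead cells was set against 1 mM digitonin as maximum release, then converted to percent live. Values are means of n=3-7.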

BAX = test: bDNA analysis of mRNA in rat cardiomyocytes; type: cell-based; conditions: after 1 hr at 10 μM
Method: (§1) Bcl2 is often induced in response to BAX a protein that promotes apoptosis.
(§2) […] Plates were mixed using a DPC 5 Micromix plate shaker at 37° C. for 15-30 minutes to ensure complete lysis of cells. Cell lysis was confirmed using a Nikon inverted microscope. Plates were stored at −80° C. until further analysis.
(§3) bDNA Analysis (Day 1): All solutions were prepared fresh on the day of analysis. Quantigene® bDNA kit components were brought to room temperature prior to use. Chemicals not supplied by Genospectra were obtained from Sigma-Aldrich.
(§4) On the day of analysis, Target Probe Sets were prepared for probe gene sets by adding 25 μL of each probe set component (CE, LE, BL) to 425 μL stock lysis solution using the following probe set concentrations: CE (50 fmol/μL), LE (200 fmol/μL), BL (100 fmol/μL).
(§5) Cell lysis plates were removed from freezer storage and thawed. […] Next, 10 μL of the appropriate Target Probe Set (PS2) was added to each appropriate well of the Capture Plate. Plates were tightly sealed using a plate sealer and incubated at 53° C. for 16-20 hr (overnight).
(§6) bDNA Analysis (Day 2): Wash buffer was prepared in ultra-pure water using 0.1×Saline-Sodium Citrate (SSC) and 0.03% Lithium Lauryl Sulfate (LLS). Amplifier working solution was prepared by adding 10 μL Amplifier to 10 mL Amplifier Diluent per plate.
(§7) Plates were removed from incubator and washed three times with 300 μL wash buffer. […]

Bcl2 = test: bDNA analysis of mRNA in rat cardiomyocytes; type: cell-based; conditions: after 6 hr at 10 μM
Method: as §1, §2, §3, §4, §5, §6, §7

[1] = Cell number (propidium iodide); type: cell-based; conditions: neonatal rat cardiomyocytes; rat cardiomyocytes (CM), 24 HR exposure; read-out: Cell Number TC50
Method: One test compound (Compound A) was received as dry powder and evaluated for potential cytotoxicity in a battery of in vitro assays. The compound was tested using both rat cardiomyocytes (CM) from rat neonates and a rat hepatoma (H4IIE) cell line. […] Camptothecin and rotenone were included as positive control compounds. The cell supernatant or the cells themselves were harvested for biochemical analysis. General cytotoxicity was evaluated by monitoring membrane integrity, mitochondrial function, cell proliferation, oxidative stress, and apoptosis. In addition, interaction with P-glycoprotein (PgP) on H4IIE cells and solubility of the test compound were also assessed. The means of each exposure group (n=3-7) were calculated for each assay performed. Intra assay variation well-to-well was typically less than 10% with plate to plate variation typically less than 20%.
Cell Proliferation: Cell proliferation in each well was measured with propidium iodide (PI). […] The 15 nm shift enhances PI fluorescence approximately 20 times while the excitation maxima are shifted 30-40 nm. During method development experiments, it was determined that Triton-X-100 was the best solution to permeabilize the H4IIE cells thereby allowing the PI access to intracellular RNA and DNA. Fluorescence was measured using a Packard Fusion plate reader or equivalent reader at 540 nm excitation and 610 nm emission. […]

C32 cells = test: Caspase 3 activity (apoptosis); type: cell-based, human; conditions: C32, 24 HR
Method: (§8) Caspase 3 Procedure: Caspase 3 activity was determined using a caspase substrate (DEVD, Asp-Glu-Val-Asp) labeled with a fluorescent molecule, 7-Amino4-methylcoumarin (AMC). Caspase 3 cleaves the tetrapeptide between D and AMC, thus releasing the fluorogenic […] AMC. Following the test article exposure to cells in 96-well plates, medium was aspirated from plates and PBS added to each well. Plates were stored at −80° C. to lyse cells and store samples until further analysis. On the day of analysis, plates were removed from freezer and thawed. Caspase buffer with fluorescent substrate was added to each well and incubated at room temperature for 1 hr. AMC release was measured in a spectrofluorometer at an excitation wavelength of 360 nm and an emission wavelength of 460 nm. Values are expressed as relative fluorescent units (RFU).
(§9) Caspase Activity: After sample plates were completely thawed, the caspase substrate buffer mix was added to each plate. Plates were incubated at room temperature for 1hr, shielded from light. Plates were read using a in a spectrofluorometer at an excitation wavelength of 360 nm and an emission wavelength of 460 nm. Values were expressed as relative fluorescent units (RFU).
(§10) The key to the maximal response data can be found below Table 2.
(§11) Dosing solutions were prepared in complete culture medium.

HUVEC = test: Caspase 3 activity (apoptosis); type: cell-based, human; conditions: 24 HR
Method: as §8, §9, §10, §11

NHEM cells = test: Caspase 3 activity (apoptosis); type: cell-based, human; conditions: 24 HR
Method: as §8, §9, §10, §11

SMILES | more potent in the heart cells than in liver cells (cell death as marker) (rat cardiomyocytes) | BAX increase (BAX) | Bcl2 induction (Bcl2) | CC50 at 24 h [1] | Caspase 3 Activity (Index/Dose): Index (C32 cells) | Caspase 3 Activity (Index/Dose): Dose (C32 cells; controls (μM section)) | Caspase 3 Activity (Index/Dose): Index (HUVEC) | Caspase 3 Activity (Index/Dose): Dose (HUVEC; controls (μM section)) | Caspase 3 Activity (Index/Dose): Index (NHEM cells) | Caspase 3 Activity (Index/Dose): Dose (NHEM cells; controls (μM section))
COc1cccc2c1C(=O)c1c(O)c3c(c(O)c1C2=O)C[C@@](O)(C(=O)CO)C[C@@H]3O[C@H]1C[C@H](N)[C@H](O)[C@H](C)O1 [ADRIAMYCIN, Adriamycin] | about 2.5 fold | 3 fold | 6 fold |  |  |  |  |  |  | 
CC[C@@]1(O)C(=O)OCc2c1cc1n(c2=O)Cc2cc3ccccc3nc2-1 [CAMPTOTHECIN, Camptothecin] |  |  |  | 293 µM | 4 (600-800 = 4) | 300 | 1 (0-200 = 1) | 300 | 3 (400-600 = 3) | 300
